The results in this text go back to PubChem BioAssay (NCI).

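Tested at 5 concentrations; 48 h exposure; 96-well plates; endpoints linearly interpolated, else capped at highest concentration. GI50 marks 50% less growth. Definition used: TGI = concentration required for complete inhibition of growth.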

Test systems include RXF 393 renal; HCC-2998 colon; IGROV1 ovarian; CCRF-CEM leukemia; SK-MEL-2 melanoma; M14 melanoma; TK-10 renal; UACC-257 melanoma; NCI-H226 lung; HCT-15 colon.
Holding throughout (assay): NCI-60 cell line screen, 48 h

As to `NC1=NN(c2ccccc2)C(=O)C1/C(=N\NC(=O)c1cc2ccccc2cc1O)C(=O)Nc1cccc(C(F)(F)F)c1` (stereo not drawn), the TGI is greater than 100 µM in the experiment with RXF 393 renal; greater than 100 µM in the experiment with HCC-2998 colon; greater than 100 µM in the experiment with IGROV1 ovarian; 34.1 µM in the experiment on CCRF-CEM leukemia; 93.8 µM in the experiment on SK-MEL-2 melanoma; greater than 100 µM in the experiment on M14 melanoma. The values for the TGI in the experiment with TK-10 renal and in the experiment with UACC-257 melanoma were greater than 100 µM and 71.1 µM, respectively.

`COc1cc(/C=C2\Oc3cc(OCCCN4CCCC4)ccc3C2=O)cc(OC)c1`: the GI50 in the experiment on RXF 393 renal was 3.02 µM; in the experiment with HCC-2998 colon, 3.91 µM; with IGROV1 ovarian it was 4.4 µM; in the experiment with CCRF-CEM leukemia, 2.76 µM; in the experiment on SK-MEL-2 melanoma, 14.7 µM; in the experiment with M14 melanoma, 1.83 µM. Besides, the GI50 in the experiment with NCI-H226 lung is 13.8 µM; in the experiment with TK-10 renal it was 11.4 µM; in the experiment on HCT-15 colon, 2.84 µM; in the experiment on UACC-257 melanoma, 4.54 µM. The TGI in the experiment with RXF 393 renal was 12.3 µM; in the experiment on HCC-2998 colon it was 15 µM; in the experiment on IGROV1 ovarian, 16.9 µM; with CCRF-CEM leukemia it was 10.4 µM; with SK-MEL-2 melanoma it was 30.2 µM; with M14 melanoma it was 3.75 µM. For the same compound, the TGI in the experiment on NCI-H226 lung is 27 µM; with TK-10 renal, 25.4 µM; in the experiment with HCT-15 colon, 12.3 µM; in the experiment with UACC-257 melanoma it was 17 µM.

Consider `CC(=O)[CH-]C(=O)c1ccccc1.CC(=O)[CH-]C(=O)c1ccccc1.CC[C@H](/C=C/C(C)[C@H]1CCC2[C@@H]3CC=C4C[C@@H]([O-])CC[C@]4(C)C3CC[C@@]21C)C(C)C.CC[O-].[Ti+4]` (stereo partly drawn), for which the GI50 in the experiment with RXF 393 renal is 84.4 µM; in the experiment on HCC-2998 colon it was greater than 100 µM; in the experiment with IGROV1 ovarian, greater than 100 µM; in the experiment with CCRF-CEM leukemia, 61.4 µM; in the experiment with SK-MEL-2 melanoma, greater than 100 µM; in the experiment with M14 melanoma, greater than 100 µM. Also, the GI50 in the experiment on NCI-H226 lung, with TK-10 renal, in the experiment on HCT-15 colon and in the experiment on UACC-257 melanoma was greater than 100 µM each time. In addition, the TGI in the experiment on RXF 393 renal, in the experiment with HCC-2998 colon, in the experiment on IGROV1 ovarian, with CCRF-CEM leukemia, in the experiment on SK-MEL-2 melanoma and in the experiment with M14 melanoma was greater than 100 µM each time. Besides, the TGI with NCI-H226 lung, in the experiment on TK-10 renal, with HCT-15 colon and with UACC-257 melanoma was greater than 100 µM each time.

For `CCCCCCCCCCC/C=C\C[C@H](O)C/C=C1/C(=O)C=C[C@@H]1C/C=C\CCCC(=O)OC`, the GI50 in the experiment with RXF 393 renal is 0.827 µM; with HCC-2998 colon, 1.24 µM; in the experiment with IGROV1 ovarian, 0.742 µM; in the experiment with CCRF-CEM leukemia, 0.923 µM; in the experiment on SK-MEL-2 melanoma, 1.46 µM; in the experiment on M14 melanoma, 1.04 µM. Also, the GI50 in the experiment with NCI-H226 lung is 0.732 µM; with TK-10 renal, 1.95 µM; with HCT-15 colon it was 0.59 µM. Also, the TGI in the experiment with RXF 393 renal came to 3.18 µM; in the experiment with HCC-2998 colon it was 4.01 µM; in the experiment on IGROV1 ovarian, 2.66 µM; with CCRF-CEM leukemia, 5.36 µM; in the experiment on SK-MEL-2 melanoma, 5.67 µM; with M14 melanoma, 4.32 µM. Moreover, the TGI worked out at 1.76 µM in the experiment with NCI-H226 lung, 9.78 µM with TK-10 renal and 1.29 µM in the experiment on HCT-15 colon.

For `O=C(O)C1C2C=CC(C2)C1C(=O)O` (stereo not drawn), the GI50 in the experiment with RXF 393 renal, in the experiment with HCC-2998 colon, in the experiment on IGROV1 ovarian, with CCRF-CEM leukemia, in the experiment on SK-MEL-2 melanoma and with M14 melanoma was greater than 100 µM in each case. Also, the GI50 with NCI-H226 lung, with HCT-15 colon and in the experiment with UACC-257 melanoma was greater than 100 µM throughout. For the same compound, the TGI with RXF 393 renal, in the experiment on HCC-2998 colon, with IGROV1 ovarian, with CCRF-CEM leukemia, with SK-MEL-2 melanoma and with M14 melanoma was greater than 100 µM throughout. In addition, the TGI in the experiment on NCI-H226 lung, with HCT-15 colon and in the experiment with UACC-257 melanoma was greater than 100 µM throughout.

Regarding `CSCC[C@H](NC(=O)[C@H](CC(C)C)NC(=O)[C@@H](Cc1ccccc1)NC(=O)CNC(=O)[C@@H](NC(=O)[C@H](C)NC(=O)[C@H](Cc1c[nH]c2ccccc12)NC(=O)[C@H](CCC(N)=O)NC(=O)[C@H](N)CC(N)=O)C(C)C)C(N)=O`, the TGI in the experiment with RXF 393 renal, in the experiment on HCC-2998 colon, in the experiment on IGROV1 ovarian, in the experiment on CCRF-CEM leukemia, in the experiment with M14 melanoma and with NCI-H226 lung was greater than 12.5 µM in each case. For the same compound, the TGI in the experiment with TK-10 renal, with HCT-15 colon and in the experiment on UACC-257 melanoma was greater than 12.5 µM throughout.

On to `COc1cccc(NC(=O)C(C)(C)C)c1SSc1c(NC(=O)C(C)(C)C)cccc1OC`, for which the TGI is 35.3 µM in the experiment with RXF 393 renal; greater than 100 µM in the experiment with HCC-2998 colon; greater than 100 µM in the experiment with IGROV1 ovarian; greater than 89.5 µM in the experiment with CCRF-CEM leukemia; greater than 100 µM with SK-MEL-2 melanoma; 32.5 µM in the experiment with M14 melanoma. Also, the TGI in the experiment on NCI-H226 lung was greater than 93.6 µM; in the experiment on TK-10 renal, greater than 100 µM; in the experiment on HCT-15 colon, 44.4 µM; in the experiment on UACC-257 melanoma, 51.4 µM.

Regarding `COC(=O)C(CC(C)=O)CS(=O)(=O)CC(=O)C(=O)Nc1cccc([N+](=O)[O-])c1` (stereo not drawn), the TGI with RXF 393 renal, in the experiment with HCC-2998 colon, with IGROV1 ovarian, in the experiment with CCRF-CEM leukemia, in the experiment on SK-MEL-2 melanoma and with M14 melanoma was greater than 100 µM in each case. Further, the TGI in the experiment on NCI-H226 lung, in the experiment on TK-10 renal, in the experiment with HCT-15 colon and with UACC-257 melanoma was greater than 100 µM each time.

For `c1cc(CSSCc2ccncc2)ccn1`, the TGI was greater than 75.7 µM with RXF 393 renal; 58.7 µM with HCC-2998 colon; greater than 100 µM in the experiment with IGROV1 ovarian; 24.2 µM with CCRF-CEM leukemia; 82.1 µM with SK-MEL-2 melanoma; greater than 82.6 µM in the experiment on M14 melanoma. Further, the TGI with NCI-H226 lung is greater than 85.5 µM; in the experiment with TK-10 renal, greater than 100 µM; in the experiment with HCT-15 colon, greater than 100 µM; with UACC-257 melanoma, greater than 100 µM.
